From US20100204202A1, “DRUG FOR ALLEVIATING MOTOR COMPLICATIONS OR PSYCHIATRIC SYMPTOMS OF PARKINSON'S DISEASE” (Asubio Pharma Co., Ltd., priority 2007, published 2010) come the findings set out here.

Counter-ions that a name gives are not always drawn.

Data set [1] is described as follows: Concentration in plasma after sustained subcutaneous administration (osmotic pump). The class given is in vivo. To be noted: rat, sc, after the end of the behavioral experiments. The protocol:
(§1) Therefore, the inventors prepared Parkinson's disease model rats in the same way as in Example 4 and treated the rats by repeated doses of levodopa (twice a day, Monday to Friday) for 7 weeks. The presence or absence of the rotational behavior of each rat was recorded at approximately 1 hour after the administration of levodopa during the repeated dosing period. […] Therefore, from weeks 1 to 5 of repeated doses of levodopa, the inventors recorded the presence of any rotational behavior of the rats each time, then studied the effects of the tested substances from week 6 of repeated doses of levodopa by implanting an Aizet® osmotic pump filled with SUN N4057 or physiological saline (2ML4, volume 2 ml, flow rate 2.5 μl/hr) subcutaneously at the rats. In the 2 weeks after that, the inventors similarly continued to record the presence of any rotational behavior of the rats 1 hour after levodopa administration.
Note that the measured values of the concentration of SUN N4057 in the plasma of each group measured after the end of the behavioral experiments were 5.3±0.7 ng/mL in the SUN N4057 low dosage sustained subcutaneous administration group and 14.3±2.9 ng/mL in the high dosage sustained subcutaneous administration group.

Data set [2] has as its system Parkinson's disease model rats. Nature of the data set: Rate of incidence of rotational behavior induced by levodopa dosage (response failure). It counts as in vivo, rat. The note with it: sustained subcutaneous administration (osmotic pump) from week 6 of repeated levodopa, 2 weeks. The protocol:
as §1

In the case of `O=C1c2ccccc2OC=C(Cl)N1CCCCN1CC=C(c2ccccn2)CC1` [SUN N4057, 3-chloro-4,5-dihydro-4-{4-[4-(2-pyridyl)-1,2,3,6-tetrahydropyridin-1-yl]butyl}-1,4-benzoxazepin-5-one.dihydrochloride-dihydrate], the values for the concentration at 2 weeks in data set [1] (high dosage sustained subcutaneous administration group) and in data set [1] (low dosage sustained subcutaneous administration group) were 14.3 ± 2.9 ng/mL and 5.3 ± 0.7 ng/mL, respectively. For the same molecule, in data set [2], the “rate of incidence of rotational behavior” value was “action on recovery”.
